Common to all, as to format: cell-based
In test [1] the target is T1, hP2X2R (human P2X2 receptor) (Homo sapiens, UniProt Q9UBL9).
T1 construct: gene P2RX2; hP2X2-L (Q9UBL9-1) with ATP4−; hP2X2-S (Q9UBL9-2) with Mg-ATP2−; homotrimer in MSP1E3D1 lipid nanodiscs
T1 sequence (Q9UBL9 1-404 isoform Q9UBL9-2): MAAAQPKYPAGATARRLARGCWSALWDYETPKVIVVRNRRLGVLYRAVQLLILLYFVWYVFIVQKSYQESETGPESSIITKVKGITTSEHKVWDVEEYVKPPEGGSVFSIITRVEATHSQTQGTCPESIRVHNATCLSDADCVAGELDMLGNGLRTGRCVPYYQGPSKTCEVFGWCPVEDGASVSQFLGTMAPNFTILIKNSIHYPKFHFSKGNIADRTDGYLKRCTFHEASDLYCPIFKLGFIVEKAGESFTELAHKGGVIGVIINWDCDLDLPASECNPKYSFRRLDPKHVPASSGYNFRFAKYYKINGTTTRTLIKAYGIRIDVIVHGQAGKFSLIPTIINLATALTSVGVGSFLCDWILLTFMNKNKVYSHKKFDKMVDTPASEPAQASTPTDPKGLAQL
Briefly: cryo-EM structure in nanodiscs; whole-cell patch clamp EC50 in EDTA ([…] with divalent cations).

The target in test [2] is T2, hP2X2R (human P2X2 receptor) (Homo sapiens, UniProt Q9UBL9, R130E).
T2 construct: gene P2RX2; hP2X2-L
T2 sequence (Q9UBL9 1-471 R130E): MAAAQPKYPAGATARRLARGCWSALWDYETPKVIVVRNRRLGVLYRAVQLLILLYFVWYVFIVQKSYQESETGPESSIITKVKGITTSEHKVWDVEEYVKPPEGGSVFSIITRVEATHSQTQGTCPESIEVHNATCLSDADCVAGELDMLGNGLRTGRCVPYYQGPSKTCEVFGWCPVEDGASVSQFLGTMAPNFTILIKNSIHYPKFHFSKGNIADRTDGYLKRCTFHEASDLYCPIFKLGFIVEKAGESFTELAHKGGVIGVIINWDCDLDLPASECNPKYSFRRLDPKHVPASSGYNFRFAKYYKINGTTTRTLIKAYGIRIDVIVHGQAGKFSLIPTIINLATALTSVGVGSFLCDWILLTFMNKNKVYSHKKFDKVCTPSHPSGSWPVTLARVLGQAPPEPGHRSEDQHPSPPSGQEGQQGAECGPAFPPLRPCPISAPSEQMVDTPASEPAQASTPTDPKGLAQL
The test can be described thus: whole-cell patch clamp in HEK293 cells, EDTA solution. A general note: Patch clamp records ionic current or voltage across a cell membrane.

Test [3] addresses T3, hP2X2R (human P2X2 receptor) (Homo sapiens, UniProt Q9UBL9, R130A).
T3 construct: gene P2RX2; hP2X2-L
T3 sequence (Q9UBL9 1-471 R130A): T2 sequence (Q9UBL9 1-471 R130E) with E130A
The test is described as above.

Test [4] concerns the target T4, hP2X2R (human P2X2 receptor) (Homo sapiens, UniProt Q9UBL9).
T4 construct: gene P2RX2; hP2X2-L
T4 sequence (Q9UBL9 1-471): T2 sequence (Q9UBL9 1-471 R130E) with E130R

For test [5], the target named is T3, hP2X2R (human P2X2 receptor).

SMILES strings stand for the structures. Where a chain is given by its changes, count along the chain named.

Take `Nc1ncnc2c1ncn2[C@@H]1O[C@H](COP(=O)(O)OP(=O)(O)OP(=O)(O)O)[C@@H](O)[C@H]1O` [ATP]: the half-maximal effective concentration (EC50) – broadly, the concentration that produces a half-maximal response – in test [1] was found to be 1.4 ± 0.4 µM; in test [2], 4 ± 0.9 µM; in test [3], 3.7 ± 0.9 µM.

As for `Nc1ncnc2c1ncn2[C@@H]1O[C@H](COP(=O)(O)CP(=O)(O)OP(=O)(O)O)[C@@H](O)[C@H]1O` [α,β-Methylene-ATP], the “whole-cell patch clamp in HEK293 cells (weak activation)” value in test [4] and in test [5] was “α,β-Methylene-ATP could only weakly activate either WT hP2X2 or the R130A mutant” throughout.

(Values after publication doi:10.64898/2025.12.04.692396, “Mechanisms of ligand recognition and channel opening for P2X2 receptors in lipid nanodiscs” (bioRxiv, 2025).)
